Measurements published in PubChem BioAssay (NCI).
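Five compound concentrations were applied to cells in 96-well plates for 48 hours; endpoints were derived by simple linear interpolation of the resulting dose-response curve. TGI: total growth inhibition.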

What was measured:
Experiment in all cases: NCI anticancer screen, dose series, 48 h
786-0 renal = system: 786-0 renal
A498 renal = system: A498 renal
A549 NSCLC = system: A549 NSCLC
ACHN renal = system: ACHN renal
BT-549 breast = system: BT-549 breast
CAKI-1 renal = system: CAKI-1 renal
CCRF-CEM leukemia = system: CCRF-CEM leukemia
COLO 205 colon = system: COLO 205 colon
DU-145 prostate = system: DU-145 prostate
EKVX NSCLC = system: EKVX NSCLC
HCC-2998 colon = system: HCC-2998 colon
HCT-116 colon = system: HCT-116 colon
HCT-15 colon = system: HCT-15 colon
HL-60(TB) leukemia = system: HL-60(TB) leukemia
HOP-62 NSCLC = system: HOP-62 NSCLC
HOP-92 NSCLC = system: HOP-92 NSCLC
HS 578T breast = system: HS 578T breast
HT29 colon = system: HT29 colon
K-562 leukemia = system: K-562 leukemia
KM12 colon = system: KM12 colon
LOX IMVI melanoma = system: LOX IMVI melanoma
M14 melanoma = system: M14 melanoma
MALME-3M melanoma = system: MALME-3M melanoma
MCF7 breast = system: MCF7 breast
MDA-MB-231 breast = system: MDA-MB-231 breast
MDA-MB-435 = system: MDA-MB-435
MOLT-4 leukemia = system: MOLT-4 leukemia
NCI-H226 lung = system: NCI-H226 lung
NCI-H23 lung = system: NCI-H23 lung
NCI-H460 lung = system: NCI-H460 lung
NCI-H522 lung = system: NCI-H522 lung
NCI/ADR-RES ovarian = system: NCI/ADR-RES ovarian
OVCAR-3 ovarian = system: OVCAR-3 ovarian
OVCAR-4 ovarian = system: OVCAR-4 ovarian
OVCAR-5 ovarian = system: OVCAR-5 ovarian
OVCAR-8 ovarian = system: OVCAR-8 ovarian
PC-3 prostate = system: PC-3 prostate
RXF 393 renal = system: RXF 393 renal
SF-268 CNS = system: SF-268 CNS
SF-295 CNS = system: SF-295 CNS
SF-539 CNS = system: SF-539 CNS
SK-MEL-2 melanoma = system: SK-MEL-2 melanoma
SK-MEL-28 melanoma = system: SK-MEL-28 melanoma
SK-MEL-5 melanoma = system: SK-MEL-5 melanoma
SK-OV-3 ovarian = system: SK-OV-3 ovarian
SN12C renal = system: SN12C renal
SNB-19 CNS = system: SNB-19 CNS
SNB-75 CNS = system: SNB-75 CNS
SR leukemia = system: SR leukemia
SW-620 colon = system: SW-620 colon
T-47D breast = system: T-47D breast
TK-10 renal = system: TK-10 renal
U251 CNS = system: U251 CNS
UACC-257 melanoma = system: UACC-257 melanoma
UACC-62 melanoma = system: UACC-62 melanoma
UO-31 renal = system: UO-31 renal
IGROV1 ovarian = system: IGROV1 ovarian
RPMI-8226 leukemia = system: RPMI-8226 leukemia

## O=C(c1ccco1)N(Cc1cccnc1)C(=S)N(Cc1cccnc1)C(=O)c1ccco1
786-0 renal
  TGI: 11.8 µM
A498 renal
  TGI: 62.7 µM
A549 NSCLC
  TGI: 38.8 µM
ACHN renal
  TGI: 30.7 µM
BT-549 breast
  TGI: 66.2 µM
CAKI-1 renal
  TGI: 45.4 µM
CCRF-CEM leukemia
  TGI: 14.5 µM
COLO 205 colon
  TGI: 16.3 µM
DU-145 prostate
  TGI: > 100 µM
EKVX NSCLC
  TGI: 35.8 µM
HCC-2998 colon
  TGI: 31.8 µM
HCT-116 colon
  TGI: 20.6 µM
HCT-15 colon
  TGI: 77.7 µM
HL-60(TB) leukemia
  TGI: 49 µM
HOP-62 NSCLC
  TGI: 44.1 µM
HOP-92 NSCLC
  TGI: 38.7 µM
HS 578T breast
  TGI: 56.4 µM
HT29 colon
  TGI: 44.3 µM
K-562 leukemia
  TGI: > 100 µM
KM12 colon
  TGI: 23.4 µM
LOX IMVI melanoma
  TGI: 27.8 µM
M14 melanoma
  TGI: 27 µM
MALME-3M melanoma
  TGI: 32.7 µM
MCF7 breast
  TGI: 14.7 µM
MDA-MB-231 breast
  TGI: 22.6 µM
MDA-MB-435
  TGI: 38.7 µM
MOLT-4 leukemia
  TGI: > 100 µM
NCI-H226 lung
  TGI: 47.9 µM
NCI-H23 lung
  TGI: 61.6 µM
NCI-H460 lung
  TGI: 55.6 µM
NCI-H522 lung
  TGI: 29.9 µM
NCI/ADR-RES ovarian
  TGI: > 100 µM
OVCAR-3 ovarian
  TGI: 23.4 µM
OVCAR-4 ovarian
  TGI: 50 µM
OVCAR-5 ovarian
  TGI: 46.9 µM
OVCAR-8 ovarian
  TGI: 66 µM
PC-3 prostate
  TGI: 19.7 µM
RXF 393 renal
  TGI: 57.4 µM
SF-268 CNS
  TGI: 43.6 µM
SF-295 CNS
  TGI: 77.1 µM
SF-539 CNS
  TGI: 26.7 µM
SK-MEL-2 melanoma
  TGI: 28.1 µM
SK-MEL-28 melanoma
  TGI: 45.8 µM
SK-MEL-5 melanoma
  TGI: 29.1 µM
SK-OV-3 ovarian
  TGI: 83.8 µM
SN12C renal
  TGI: 24 µM
SNB-19 CNS
  TGI: 83.5 µM
SNB-75 CNS
  TGI: 98.7 µM
SR leukemia
  TGI: > 100 µM
SW-620 colon
  TGI: 36.5 µM
T-47D breast
  TGI: 63.2 µM
TK-10 renal
  TGI: 23.3 µM
U251 CNS
  TGI: 31.4 µM
UACC-257 melanoma
  TGI: 31.7 µM
UACC-62 melanoma
  TGI: 29.7 µM
UO-31 renal
  TGI: 28.8 µM

## CN1CN(c2ccccc2)C2(CCN(Cc3nc4ccccc4s3)CC2)C1=O
786-0 renal
  TGI: 31.3 µM
A498 renal
  TGI: 30.7 µM
A549 NSCLC
  TGI: 33.4 µM
ACHN renal
  TGI: 39.8 µM
BT-549 breast
  TGI: 30.3 µM
CAKI-1 renal
  TGI: 49.6 µM
CCRF-CEM leukemia
  TGI: 41.6 µM
COLO 205 colon
  TGI: 32.1 µM
DU-145 prostate
  TGI: 38.3 µM
EKVX NSCLC
  TGI: 48.3 µM
HCT-116 colon
  TGI: 28.1 µM
HCT-15 colon
  TGI: 35.1 µM
HL-60(TB) leukemia
  TGI: 29.1 µM
HOP-62 NSCLC
  TGI: 30.7 µM
HOP-92 NSCLC
  TGI: 28.5 µM
HS 578T breast
  TGI: 41.8 µM
HT29 colon
  TGI: 30.7 µM
IGROV1 ovarian
  TGI: 30.4 µM
K-562 leukemia
  TGI: 32.4 µM
LOX IMVI melanoma
  TGI: 34.9 µM
M14 melanoma
  TGI: 26.3 µM
MALME-3M melanoma
  TGI: 31.8 µM
MCF7 breast
  TGI: 29.5 µM
MDA-MB-231 breast
  TGI: 27.2 µM
MDA-MB-435
  TGI: 32.3 µM
MOLT-4 leukemia
  TGI: 34.3 µM
NCI-H226 lung
  TGI: 36.2 µM
NCI-H23 lung
  TGI: 34.2 µM
NCI/ADR-RES ovarian
  TGI: 33.5 µM
OVCAR-3 ovarian
  TGI: 32.4 µM
OVCAR-4 ovarian
  TGI: 38 µM
OVCAR-5 ovarian
  TGI: 34.1 µM
OVCAR-8 ovarian
  TGI: 28.8 µM
PC-3 prostate
  TGI: 28.8 µM
RPMI-8226 leukemia
  TGI: 36.2 µM
RXF 393 renal
  TGI: 29.9 µM
SF-268 CNS
  TGI: 44.3 µM
SF-295 CNS
  TGI: 32 µM
SF-539 CNS
  TGI: 32.4 µM
SK-MEL-2 melanoma
  TGI: 34.1 µM
SK-MEL-28 melanoma
  TGI: 31.5 µM
SK-MEL-5 melanoma
  TGI: 29.6 µM
SK-OV-3 ovarian
  TGI: 52.7 µM
SN12C renal
  TGI: 31.7 µM
SNB-19 CNS
  TGI: 28.6 µM
SNB-75 CNS
  TGI: 32.6 µM
SR leukemia
  TGI: 33.9 µM
T-47D breast
  TGI: 32 µM
TK-10 renal
  TGI: 34.9 µM
U251 CNS
  TGI: 30 µM
UACC-257 melanoma
  TGI: 30.4 µM
UACC-62 melanoma
  TGI: 30.1 µM
UO-31 renal
  TGI: 29 µM
